The record followed here is patent US20240238423A9, “TETRAHYDROISOQUINOLINE HETEROBIFUNCTIONAL BCL-XL DEGRADERS” (Treeline Biosciences, Inc., priority 2022, published 2024).

Where two headings read alike, the source gives them in different places.

The experiment deals with T1, Human BCL-XL protein (N-terminal HiBiT tagged BCL-XL in HT1080 cells) (Homo sapiens, UniProt Q07817).
T1 construct: expressed in transfected cells; host or cells: HT-1080 (ATCC CCL-121), stably transduced with lentivirus pLV-UBC-N-HiBiT-BCL-XL-PGK-puro and selected with puromycin
T1 sequence (Q07817 whole entry): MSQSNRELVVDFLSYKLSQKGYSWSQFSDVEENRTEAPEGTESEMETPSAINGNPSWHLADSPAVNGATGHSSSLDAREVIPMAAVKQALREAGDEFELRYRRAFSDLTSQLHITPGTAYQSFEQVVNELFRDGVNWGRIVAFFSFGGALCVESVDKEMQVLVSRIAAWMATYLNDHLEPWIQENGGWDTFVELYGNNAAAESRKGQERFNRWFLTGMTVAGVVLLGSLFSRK
Put plainly: HiBiT based degradation assay. It is filed as cell-based. To be noted: HT1080 cells expressing HiBiT-BCL-XL; for Ymin (6 h) / Ymin (24 h): BCL-XL degradation normalized with DMSO control; for DC50: BCL-XL degradation. A digest of the protocol:
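This HiBiT degradation assay measured loss of BCL-XL in HT1080 cells that stably express an N-terminal HiBiT-BCL-XL fusion delivered by lentivirus. Cells were added to compound-spotted 384-well plates, and luminescence was read on a PHERAstar FSX reader. Signal was expressed relative to DMSO controls, curves were fitted by four-parameter logistic regression, and for hook-shaped curves the Ymin point served as the bottom plateau when calculating EC50.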

With `Cc1c(OCCN2C[C@@H](C)N(CC(=O)Nc3ccc4c(C5CCC(=O)NC5=O)nn(C)c4c3)[C@@H](C)C2)cccc1-c1ccc(N2CCc3cccc(C(=O)Nc4nc5ccccc5s4)c3C2)nc1C(=O)O` (stereo partly drawn) [Compound 159a, 6-(8-(benzo[d]thiazol-2-ylcarbamoyl)-3,4-dihydroisoquinolin-2(1H)-yl)-3-(3-(2-((3R,5S)-4-(2-((3-(2,6-dioxopiperidin-3-yl)-1-methyl-1H-indazol-6-yl)amino)-2-oxoethyl)-3,5-dimethylpiperazin-1-yl)ethoxy)-2-methylphenyl)picolinic acid], under “6 h”, the “Ymin (6 h)” value is on record as “B (50% ≤ Ymin < 70%)”. For the same compound, the DC50 (6 h, read-out: EC50 (6 h)) was less than 100 nM.
`Cc1c(OCCC[C@@H]2CCN(CC(=O)Nc3ccc4c(C5CCC(=O)NC5=O)nn(C)c4c3)C2)cccc1-c1ccc(N2CCc3cccc(C(=O)Nc4nc5ccccc5s4)c3C2)nc1C(=O)O` (stereo partly drawn) [Compound 160a, 6-[8-(1,3-benzothiazol-2-ylcarbamoyl)-3,4-dihydro-1H-isoquinolin-2-yl]-3-[3-[3-[(3R)-1-[2-[[3-(2,6-dioxo-3-piperidyl)-1-methyl-indazol-6-yl]amino]-2-oxo-ethyl]pyrrolidin-3-yl]propoxy]-2-methyl-phenyl]pyridine-2-carboxylic acid]: the “Ymin (24 h)” value (24 h) is “A (Ymin < 50%)”. Besides, the DC50 (24 h, read-out: EC50 (24 h)) was less than 100 nM.
The like results for `Cc1c(OCCC[C@H]2CCN(CC(=O)Nc3ccc4c(C5CCC(=O)NC5=O)nn(C)c4c3)C2)cccc1-c1ccc(N2CCc3cccc(C(=O)Nc4nc5ccccc5s4)c3C2)nc1C(=O)O` (stereo partly drawn) [Compound 160b, 6-(8-(benzo[d]thiazol-2-ylcarbamoyl)-3,4-dihydroisoquinolin-2(1H)-yl)-3-(3-(3-((3S)-1-(2-((3-(2,6-dioxopiperidin-3-yl)-1-methyl-1H-indazol-6-yl)amino)-2-oxoethyl)pyrrolidin-3-yl)propoxy)-2-methylphenyl)picolinic acid] were, in that order, “A (Ymin < 50%)” and less than 100 nM.
For `Cc1c(O[C@H]2CC[C@H](CCCCN3CCN(c4ccc5c(C6CCC(=O)NC6=O)nn(C)c5c4)CC3)CC2)cccc1-c1ccc(N2CCc3cccc(C(=O)Nc4nc5ccccc5s4)c3C2)nc1C(=O)O` (some centres unmarked) [Compound 161a, 6-(8-(benzo[d]thiazol-2-ylcarbamoyl)-3,4-dihydroisoquinolin-2(1H)-yl)-3-(3-(((1s,4r)-4-(4-(4-(3-(2,6-dioxopiperidin-3-yl)-1-methyl-1H-indazol-6-yl)piperazin-1-yl)butyl)cyclohexyl)oxy)-2-methylphenyl)picolinic acid], the “Ymin (24 h)” value (24 h) is given as “A (Ymin < 50%)”. Where the note is “24 h, read-out: EC50 (24 h)”, the DC50 is less than 100 nM.
On to `Cc1c(O[C@@H](C)CCC2CCN(CC(=O)Nc3ccc4c(C5CCC(=O)NC5=O)nn(C)c4c3)CC2)cccc1-c1ccc(N2CCc3cccc(C(=O)Nc4nc5ccccc5s4)c3C2)nc1C(=O)O` (some centres unmarked) [Compound 162a, 6-[8-(1,3-benzothiazol-2-ylcarbamoyl)-3,4-dihydro-H-isoquinolin-2-yl]-3-[3-[(1 S)-3-[1-[2-[[3-(2,6-dioxo-3-piperidyl)-1-methyl-indazol-6-yl]amino]-2-oxo-ethyl]-4-piperidyl]-1-methyl-propoxy]-2-methyl-phenyl]pyridine-2-carboxylic acid], for which the “Ymin (6 h)” value (6 h) is listed as “B (50% ≤ Ymin < 70%)”. In addition, the “Ymin (24 h)” value (24 h) is given as “A (Ymin < 50%)”. For the same compound, the DC50 was less than 100 nM (6 h, read-out: EC50 (6 h)) and less than 100 nM (24 h, read-out: EC50 (24 h)).
For `Cc1c(O[C@H](C)CCC2CCN(CC(=O)Nc3ccc4c(C5CCC(=O)NC5=O)nn(C)c4c3)CC2)cccc1-c1ccc(N2CCc3cccc(C(=O)Nc4nc5ccccc5s4)c3C2)nc1C(=O)O` (stereo partly drawn) [Compound 162b, 6-[8-(1,3-benzothiazol-2-ylcarbamoyl)-3,4-dihydro-1H-isoquinolin-2-yl]-3-[3-[(1R)-3-[1-[2-[[3-(2,6-dioxo-3-piperidyl)-1-methyl-indazol-6-yl]amino]-2-oxo-ethyl]-4-piperidyl]-1-methyl-propoxy]-2-methyl-phenyl]pyridine-2-carboxylic acid], the “Ymin (6 h)” value (6 h) is reported as “C (Ymin ≥ 70%)”. Also, the “Ymin (24 h)” value (24 h) was “B (50% ≤ Ymin < 70%)”. Also, the DC50 is, setting by setting: (6 h, read-out: EC50 (6 h)) 100 to 1000 nM; (24 h, read-out: EC50 (24 h)) less than 100 nM.
With `Cc1c(Oc2ccc(CCCCN3CCN(c4ccc5c(C6CCC(=O)NC6=O)nn(C)c5c4)CC3)cc2)cccc1-c1ccc(N2CCc3cccc(C(=O)Nc4nc5ccccc5s4)c3C2)nc1C(=O)O` (centres unmarked) [Compound 163, 6-(8-(benzo[d]thiazol-2-ylcarbamoyl)-3,4-dihydroisoquinolin-2(1H)-yl)-3-(3-(4-(4-(4-(3-(2,6-dioxopiperidin-3-yl)-1-methyl-1H-indazol-6-yl)piperazin-1-yl)butyl)phenoxy)-2-methylphenyl)picolinic acid], for the setting “24 h”, the “Ymin (24 h)” value is “A (Ymin < 50%)”. Besides, the DC50 (24 h, read-out: EC50 (24 h)) was less than 100 nM.
The matching figures for `Cc1c(OCCCC2CCN([C@@H](C)C(=O)Nc3ccc4c(C5CCC(=O)NC5=O)nn(C)c4c3)CC2)cccc1-c1ccc(N2CCc3cccc(C(=O)Nc4nc5ccccc5s4)c3C2)nc1C(=O)O` (stereo partly drawn) [Compound 164a, 6-(8-(benzo[d]thiazol-2-ylcarbamoyl)-3,4-dihydroisoquinolin-2(1H)-yl)-3-(3-(3-(1-((2S)-1-((3-(2,6-dioxopiperidin-3-yl)-1-methyl-1H-indazol-6-yl)amino)-1-oxopropan-2-yl)piperidin-4-yl)propoxy)-2-methylphenyl)picolinic acid]: “A (Ymin < 50%)” and less than 100 nM.
The like results for `Cc1c(OCCCC2CCN([C@H](C)C(=O)Nc3ccc4c(C5CCC(=O)NC5=O)nn(C)c4c3)CC2)cccc1-c1ccc(N2CCc3cccc(C(=O)Nc4nc5ccccc5s4)c3C2)nc1C(=O)O` (stereo partly drawn) [Compound 164b, 6-(8-(benzo[d]thiazol-2-ylcarbamoyl)-3,4-dihydroisoquinolin-2(1H)-yl)-3-(3-(3-(1-((2R)-1-((3-(2,6-dioxopiperidin-3-yl)-1-methyl-1H-indazol-6-yl)amino)-1-oxopropan-2-yl)piperidin-4-yl)propoxy)-2-methylphenyl)picolinic acid] were, in that order, “A (Ymin < 50%)” and less than 100 nM.
The matching figures for `Cc1c(OCCCN2CCN(CCCOc3ccc4c(C5CCC(=O)NC5=O)nn(C)c4c3)C(C(F)(F)F)C2)cccc1-c1ccc(N2CCc3cccc(C(=O)Nc4nc5ccccc5s4)c3C2)nc1C(=O)O` (centres unmarked) [Compound 165, 6-(8-(benzo[d]thiazol-2-ylcarbamoyl)-3,4-dihydroisoquinolin-2(1H)-yl)-3-(3-(3-(4-(3-((3-(2,6-dioxopiperidin-3-yl)-1-methyl-1H-indazol-6-yl)oxy)propyl)-3-(trifluoromethyl)piperazin-1-yl)propoxy)-2-methylphenyl)picolinic acid]: “B (50% ≤ Ymin < 70%)” and 100 to 1000 nM.
Take `Cc1c(OCCCC2CCN(C(C)(C)C(=O)Nc3ccc4c(C5CCC(=O)NC5=O)nn(C)c4c3)CC2)cccc1-c1ccc(N2CCc3cccc(C(=O)Nc4nc5ccccc5s4)c3C2)nc1C(=O)O` (centres unmarked) [Compound 166, 6-[8-(1,3-benzothiazol-2-ylcarbamoyl)-3,4-dihydro-1H-isoquinolin-2-yl]-3-[3-[3-[1-[2-[[3-(2,6-dioxo-3-piperidyl)-1-methyl-indazol-6-yl]amino]-1,1-dimethyl-2-oxo-ethyl]-4-piperidyl]propoxy]-2-methyl-phenyl]pyridine-2-carboxylic acid]: the “Ymin (24 h)” value (24 h) is “B (50% ≤ Ymin < 70%)”. Besides, under “24 h, read-out: EC50 (24 h)”, the DC50 lay within 100 to 1000 nM.
